“Also recorded” adds a separate entry of the source.
Key:
[1] = system: pdFVIII (Faktor VIII aus Plasma); assay: Membrane spot binding test: immobilised peptides incubated with plasma-derived factor VIII (Octavi), detected with anti-FVIII antibodies; parameters: species or system human; details: peptide immobilised on membrane; Octavi 240 Units in 10 ml PBS pH 7.0 with 1% BSA, 2 h; binders appear as coloured spots
Protocol: (§1) Die Peptide Seq. Id. No. 55 bis 90 wurden auf einer Membran immobilisiert. Nach Äquilibrieren mit PBS Puffer pH 7.0 wurde eine Membran mit Faktor VIII Octavi® (240 Units in 10 ml PBS pH 7.0 mit 1% BSA), eine andere mit Kogenate® (250 U in 10 ml PBS, pH 7.0 mit 1% BSA) und eine nur mit PBS, pH 7.0 mit 1% BSA für zwei Stunden inkubiert. Die mit den Peptiden besetzten Membranen wurden sorgfältig mit PBS Puffer pH 7.0 gewaschen und anschließend mit den Anti-FVIII Antikörpern (Chemicon International Inc., MAB038, Sera-Lab MAS 530, MAS 531, MAS 532) für eine Stunde versetzt. Nach Waschen und Inkubieren mit Anti-Maus-IgG/alkalische Phosphatase Konjugat (1:1000, Sigma Chemicals, A-4338) wurde mit Hilfe von NBT und BCIP in 0,1 M Trispuffer, pH 9,2, entwickelt. Faktor VIII bindende Peptide erschienen als gefärbte Spots. Die Kontrollmembran (nur mit PBS pH 7.0 ohne Faktor VIII) wurde mit den beiden anderen verglichen.

[2] = system: rekombinanten Faktor VIII; assay: Membrane spot binding test: immobilised peptides incubated with recombinant factor VIII (Kogenate), detected with anti-FVIII antibodies; details: peptide immobilised on membrane; Kogenate 250 U in 10 ml PBS pH 7.0 with 1% BSA, 2 h; binders appear as coloured spots
Protocol: as §1

pdFVIII = assay: Affinity chromatography of pdFVIII on peptide membranes; eluates analysed by SDS-PAGE and Western blot; format: binding, human; details: for Banden in der SDS-PAGE unter reduzierenden Bedingungen und Silberfärbung / Western Blot des Eluates: eluate of pdFVIII run; for Banden in der SDS-PAGE unter reduzierenden Bedingungen und Silberfärbung / Elutionspeak: compared with (βAla)2 control membrane; for Western Blot des Eluates: control membrane weakly positive; for Eignung für die Affinitätschromatographie von pdFVIII: general statement of the description; for Elutionspeak: pdFVIII, elution with 0,1 M Glycin pH 3.0
Excerpt: (§2) Aus Membranen, auf die die jeweiligen Peptide immobilisiert wurden, wurden jeweils 30 Scheiben mit einem Durchmesser von 11 mm ausgestanzt. Diese wurden in eine HR 10 Säule (Pharmacia Biotechnology, Uppsala, Schweden) gepackt und zwischen zwei Stempeln fixiert.
(§3) Für alle chromatographischen Experimente wurde das Chromatographiesystem ProSys (Biosepra Inc. Marlborough, USA) verwendet.
(§4) PBS Puffer pH 7.0 wurde als Äquilibrierungs- und Waschpuffer verwendet. Für die Elution wurde ein 0,1 M Glycinpuffer pH 3.0 angewandt. Die Flußgeschwindigkeit betrug bei allen Versuchen 0,1 ml/min.
Lyophilisierter Faktor VIII aus Plasma wurde in 11 ml destilliertem Wasser zu einer Konzentration von 90 Units/ml aufgelöst. Davon wurden jeweils 4 ml mit einer Flußrate von 0,1 ml/min aufgetragen. Anschließend wurden die Affinitätsträger mit PBS-Puffer pH 7.0 gewaschen bis das UV Signal (280 nm) wieder die Basislinie erreichte. Das gebundene Material wurde mit 0,1 M Glycin pH 3.0 eluiert. Die gesammelten Fraktionen wurde mittels SDS-Page unter reduzierenden Bedingungen und Western Blot analysiert. Auf diese Weise wurden Peptide und der ßAla-ßAla-Blank auf ihre Fähigkeit Faktor VIII aus dem Octavipräparat zu binden untersucht.
(§5) Der Durchlauf und die Eluate aller Läufe wurden gesammelt und mittels SDS-PAGE unter reduzierenden Bedingungen und Western-Blot analysiert.
Für die Auftrennung wurden 4 bis 20% Tris-Glycin Gele von Novex verwendet. Die Proben wurden mit SDS-Probepuffer (1,5 M Tris HCl pH 8.45, 1,2 ml Glycerin, 0,4 g SDS, 0,1% Coomassie Blue, 0,1% Phenol Rot pro 10 ml), und 5% ß-Mercaptoethanol versetzt und über Nacht bei 4°C inkubiert. Nach der Trennung wurden die Gele silbergefärbt und eingescannt.
Nach Beendigung der elektrophoretischen Trennung wurden die Gele auf eine Nitrocellulose Membran bei 200 mA konstant für zwei Stunden elektrogeblottet. Anschließend wurde die Membran mit PBS + 3% BSA für zwei Stunden blockiert. Nach Waschen mit PBS Puffer erfolgte die Zugabe der Anti-FVIII Antikörpermischung (Chemicon International Inc., MAB038, Sera-Lab MAS 530, MAS 531, MAS 532) für zwei Stunden. Nach Waschen mit PBS wurde mit Anti Maus IgG alkalische Phosphatase (1:1000, Sigma Chemicals, A-3438) für eine Stunde inkubiert. Die Entwicklung erfolgte mit 0,1 M Tris, pH 9.2, NBT und BCIP.
(§6) Die Affinitätschromatographie wurde wie im Beispiel 1 beschrieben, durchgeführt.

[3] = system: rekombinantem Faktor VIII aus Kogenate®; assay: Affinity chromatography of recombinant factor VIII (Kogenate) on peptide membranes; eluates analysed by Western blot; format: binding; details: for Western Blot der Eluate: eluate of rFVIII (Kogenate) run, control membrane also positive; for Elutionspeak: rFVIII (Kogenate), elution with 0,1 M Glycin pH 3.0, compared with ßAla-ßAla control membrane
Excerpt: as §2, §3, §4
Die Bindung von rekombinantem Faktor VIII wurde mittels Kogenate® (Firma Bayer) untersucht. Jeweils 400 µl des Präparates (200 Units) wurden mit 1.400 µl destilliertem Wasser verdünnt und anschließend mit einer Flußrate von 0,1 ml/min auf den Affinitätsträger aufgetragen. Das Waschen erfolgte wiederum mit PBS, pH 7.0 und die darauf folgende Elution mit 0,1 M Glycin, pH 3.0. Die Fraktionen wurden mittels SDS-Page unter reduzierenden Bedingungen und Western-Blot analysiert.
as §5
Für die Auftrennung wurden 4 bis 20% Tris-Glycin Gele von Novex verwendet. […] Nach der Trennung wurden die Gele silbergefärbt und eingescannt.
Nach Beendigung der elektrophoretischen Trennung wurden die Gele auf eine Nitrocellulose Membran bei 200 mA konstant für zwei Stunden elektrogeblottet. Anschließend wurde die Membran mit PBS + 3% BSA für zwei Stunden blockiert. […] Die Entwicklung erfolgte mit 0,1 M Tris, pH 9.2, NBT und BCIP.
as §6

Row | Substance | Bindung zu pdFVIII (Faktor VIII aus Plasma) [1] | Bindung von rekombinantem Faktor VIII [2] | also measured
1 | 61 (VMKSCEYC) [compound 61] | Bindung zu pdFVIII | keinen rekombinanten Faktor VIII | 
2 | 66 (VMKSWEEF) [compound 66] | auffallende Affinität; also recorded: Bindung zu pdFVIII | auffallende Affinität; also recorded: binden rekombinanten Faktor VIII | Banden in der SDS-PAGE unter reduzierenden Bedingungen und Silberfärbung (pdFVIII): intensiver gefärbte Banden; Western Blot des Eluates (pdFVIII): positiv; Eignung für die Affinitätschromatographie von pdFVIII (pdFVIII): eignen sich insbesondere; Elutionspeak (pdFVIII): größere Elutionspeaks; Western Blot der Eluate [3]: positiv; Eignung für die Affinitätschromatographie von rFVIII (rekombinantem Faktor VIII) ([3]; general statement of the description): eignen sich insbesondere; Elutionspeak [3]: deutlich größer
3 | 68 (EWIKCEEF) [compound 68] |  | binden rekombinanten Faktor VIII | 
4 | 71 (EWIKWEYC) [compound 71] | Bindung zu pdFVIII | binden rekombinanten Faktor VIII | 
5 | 72 (EWIKWEEF) [compound 72] | auffallende Affinität; also recorded: Bindung zu pdFVIII | auffallende Affinität; also recorded: binden rekombinanten Faktor VIII | Banden in der SDS-PAGE unter reduzierenden Bedingungen und Silberfärbung (pdFVIII): intensiver gefärbte Banden; Western Blot des Eluates (pdFVIII): positiv; Eignung für die Affinitätschromatographie von pdFVIII (pdFVIII): eignen sich insbesondere; Elutionspeak (pdFVIII): größere Elutionspeaks
6 | 76 (EWKSEFEF) [compound 76] | Bindung zu pdFVIII |  | 
7 | 77 (EWKSWEYC) [compound 77] | Bindung zu pdFVIII |  | 
8 | 78 (EWKSWEEF) [compound 78] | auffallende Affinität; also recorded: Bindung zu pdFVIII | auffallende Affinität | 
9 | 84 (EYIKWEEF) [compound 84] | auffallende Affinität | auffallende Affinität | 
10 | 89 (EYKSWEYC) [compound 89] | auffallende Affinität; also recorded: Bindung zu pdFVIII | auffallende Affinität | 
11 | EYKSWEEF [Seq. Id. No. 90, Peptid, 8 Aminosäuren] | auffallende Affinität; also recorded: Bindung zu pdFVIII | auffallende Affinität | Western Blot der Eluate [3]: positiv; Elutionspeak [3]: deutlich größer
